Measured values as given in the CheMixHub viscosity set.
± gives the uncertainty stated by the source.

Assay: xn = mol fraction of the nth substance listed

CC12CC3CC(C)(C1)CC(C)(C3)C2 + CCCCCCCCCCC
viscosity [mPa·s], 100 kPa
Details	x1 = 0.1004	x1 = 0.1998	x1 = 0.3004	x1 = 0.4006	x1 = 0.4992	x1 = 0.6045	x1 = 0.7008	x1 = 0.8138	x1 = 0.9014
293.15 K	1.267 ± 0.052	1.341 ± 0.055	1.419 ± 0.058	1.514 ± 0.062	1.628 ± 0.066	1.772 ± 0.072	1.935 ± 0.079	2.161 ± 0.088	2.369 ± 0.096
298.15 K	1.16 ± 0.047	1.227 ± 0.05	1.294 ± 0.053	1.374 ± 0.056	1.47 ± 0.06	1.595 ± 0.065	1.737 ± 0.071	1.939 ± 0.079	2.134 ± 0.087
303.15 K	1.071 ± 0.044	1.121 ± 0.046	1.187 ± 0.048	1.264 ± 0.051	1.351 ± 0.055	1.463 ± 0.06	1.589 ± 0.065	1.762 ± 0.072	1.926 ± 0.078
308.15 K	0.987 ± 0.04	1.038 ± 0.042	1.095 ± 0.045	1.165 ± 0.047	1.246 ± 0.051	1.348 ± 0.055	1.46 ± 0.059	1.612 ± 0.066	1.76 ± 0.072
313.15 K	0.92 ± 0.037	0.965 ± 0.039	1.019 ± 0.041	1.083 ± 0.044	1.152 ± 0.047	1.241 ± 0.05	1.34 ± 0.055	1.475 ± 0.06	1.605 ± 0.065
318.15 K	0.86 ± 0.035	0.9 ± 0.037	0.948 ± 0.039	1.006 ± 0.041	1.073 ± 0.044	1.155 ± 0.047	1.245 ± 0.051	1.369 ± 0.056	1.48 ± 0.06
323.15 K	0.802 ± 0.033	0.843 ± 0.034	0.889 ± 0.036	0.943 ± 0.038	1.001 ± 0.041	1.073 ± 0.044	1.153 ± 0.047	1.261 ± 0.051	1.362 ± 0.055

CCCCCCCCCCCCCC + CCCCCCCCCCCCCCCC
293.15 K, 101.33 kPa
Details	viscosity [mPa·s]
x1 = 0.276	3.067 ± 0.036
x1 = 0.533	2.789 ± 0.033
x1 = 0.773	2.529 ± 0.03

CC(=O)OC1CCCCC1 + CCCCCCCCCCO
viscosity [mPa·s], 101 kPa
Details	300 K	310 K	320 K
x2 = 0.0746	2.01 ± 0.03	1.65 ± 0.03	1.38 ± 0.02
x2 = 0.1275	2.11 ± 0.03	1.72 ± 0.03	1.43 ± 0.02
x2 = 0.184	2.26 ± 0.03	1.82 ± 0.03	1.51 ± 0.02
x2 = 0.2015	2.3 ± 0.03	1.86 ± 0.03	1.55 ± 0.02
x2 = 0.2425	2.42 ± 0.04	1.95 ± 0.03	1.6 ± 0.02
x2 = 0.2741	2.54 ± 0.04	2.03 ± 0.03	1.66 ± 0.02
x2 = 0.4169	3.15 ± 0.04	2.47 ± 0.03	1.98 ± 0.03
x2 = 0.4886	3.61 ± 0.05	2.81 ± 0.04	2.23 ± 0.03
x2 = 0.6055	4.41 ± 0.06	3.35 ± 0.04	2.62 ± 0.03
x2 = 0.6993	5.27 ± 0.07	3.95 ± 0.05	3.04 ± 0.04
x2 = 0.8435	7.56 ± 0.09	5.49 ± 0.07	4.1 ± 0.05
x2 = 0.8806	8.17 ± 0.1	5.85 ± 0.07	4.37 ± 0.05

CCCCCCCCCCCCCC + CCCCCCCCCCO
100 kPa, x1 = 0.3338
Details	viscosity [mPa·s]
298.2 K	5.36 ± 0.33
308.2 K	3.89 ± 0.24
318.2 K	2.92 ± 0.18

CC12CC3CC(C)(C1)CC(C)(C3)C2 + CCCCCCCCO
viscosity [mPa·s], 100 kPa
Details	x1 = 0.1004	x1 = 0.2017	x1 = 0.3008	x1 = 0.3998	x1 = 0.5015	x1 = 0.5993	x1 = 0.7	x1 = 0.7997	x1 = 0.9005
293.15 K	7.78 ± 0.32	6.71 ± 0.27	5.79 ± 0.24	5 ± 0.2	4.3 ± 0.18	3.75 ± 0.15	3.3 ± 0.13	2.98 ± 0.12	2.76 ± 0.11
298.15 K	6.54 ± 0.27	5.65 ± 0.23	4.9 ± 0.2	4.25 ± 0.17	3.71 ± 0.15	3.28 ± 0.13	2.93 ± 0.12	2.66 ± 0.11	2.47 ± 0.1
303.15 K	5.53 ± 0.23	4.81 ± 0.2	4.2 ± 0.17	3.68 ± 0.15	3.24 ± 0.13	2.88 ± 0.12	2.59 ± 0.11	2.37 ± 0.1	2.21 ± 0.09
308.15 K	4.72 ± 0.19	4.14 ± 0.17	3.64 ± 0.15	3.22 ± 0.13	2.85 ± 0.12	2.55 ± 0.1	2.31 ± 0.09	2.13 ± 0.09	2 ± 0.08
313.15 K	4.03 ± 0.16	3.57 ± 0.15	3.18 ± 0.13	2.83 ± 0.12	2.53 ± 0.1	2.28 ± 0.09	2.08 ± 0.08	1.93 ± 0.08	1.82 ± 0.07
318.15 K	3.49 ± 0.14	3.12 ± 0.13	2.79 ± 0.11	2.5 ± 0.1	2.24 ± 0.09	2.03 ± 0.08	1.86 ± 0.08	1.73 ± 0.07	1.65 ± 0.07
323.15 K	3.03 ± 0.12	2.72 ± 0.11	2.45 ± 0.1	2.22 ± 0.09	2 ± 0.08	1.83 ± 0.07	1.69 ± 0.07	1.58 ± 0.06	1.51 ± 0.06

ClC(Cl)=C(Cl)Cl + CCCCCCCO
303.15 K, 101 kPa
Details	viscosity [mPa·s]
x2 = 0.132	1.08 ± 0.026
x2 = 0.2375	1.267 ± 0.027
x2 = 0.3539	1.511 ± 0.029
x2 = 0.4634	1.807 ± 0.032
x2 = 0.5262	2.016 ± 0.033
x2 = 0.5927	2.259 ± 0.034
x2 = 0.6534	2.548 ± 0.036
x2 = 0.7637	3.149 ± 0.038
x2 = 0.8512	3.725 ± 0.04
x2 = 0.9246	4.255 ± 0.041

CCCCCCCCCCCCCC + CCCCCO
viscosity [mPa·s], 101.33 kPa
Details	x1 = 0.0999	x1 = 0.2002	x1 = 0.3001	x1 = 0.3987	x1 = 0.5009	x1 = 0.6004	x1 = 0.6996	x1 = 0.8014	x1 = 0.9002
293.15 K	3.262 ± 0.33	2.941 ± 0.3	2.698 ± 0.27	2.52 ± 0.25	2.396 ± 0.24	2.31 ± 0.23	2.26 ± 0.23	2.234 ± 0.22	2.243 ± 0.23
303.15 K	2.499 ± 0.25	2.274 ± 0.23	2.103 ± 0.21	1.982 ± 0.2	1.896 ± 0.19	1.845 ± 0.19	1.82 ± 0.18	1.817 ± 0.18	1.829 ± 0.18
313.15 K	1.963 ± 0.2	1.797 ± 0.18	1.674 ± 0.17	1.588 ± 0.16	1.531 ± 0.15	1.5 ± 0.15	1.491 ± 0.15	1.501 ± 0.15	1.519 ± 0.15
323.15 K	1.556 ± 0.16	1.441 ± 0.14	1.353 ± 0.14	1.297 ± 0.13	1.259 ± 0.13	1.241 ± 0.12	1.246 ± 0.13	1.262 ± 0.13	1.285 ± 0.13

O=[N+]([O-])c1ccccc1 + CCCCCO
293.15 K, 101.33 kPa
Details	viscosity [mPa·s]
x2 = 0.0258	1.964 ± 0.045
x2 = 0.0556	1.924 ± 0.045
x2 = 0.104	1.867 ± 0.043
x2 = 0.18	1.856 ± 0.043
x2 = 0.204	1.86 ± 0.043
x2 = 0.2635	1.899 ± 0.044
x2 = 0.2976	1.918 ± 0.044
x2 = 0.3319	1.938 ± 0.045
x2 = 0.3827	2.003 ± 0.046
x2 = 0.4677	2.104 ± 0.048
x2 = 0.6694	2.475 ± 0.056
x2 = 0.8217	2.982 ± 0.067
